Results: US20120028985A1, “COMBINATIONAL THERAPY FOR TREATING AUTOIMMUNE DISEASE” (4SC AG, priority 2008, published 2012)
Where “and” joins values, the source holds several entries; their conditions need not be identical. Identical values can stand only once.

Tests used:
Beagle dogs [1] = experiment: 13-week repeat dose toxicity in Beagle dogs, combination with methotrexate: clinical biochemistry (ALAT, ASAT); assay type: in vivo; settings: for ALAT, change as compared to the control group 1 / ASAT, change as compared to the control group 1: 25 mg Formula (II)/kg/day and/or 10/2.5 mg MTX/kg/week, p.o.
Description: For laboratory examinations blood samples were taken from the vena cephalica or vena saphena magna from animals fasted overnight. Serum samples were collected into tubes for biochemical tests. Clinical biochemistry parameters from venous blood were determined at the times listed below:
Prior to study start: all animals of a pool of 52 dogs […]
At the end of the recovery period: all 8 recovery animals included in this study
Clinical biochemistry parameters (e.g. bile acids, alanine aminotransferase=ALAT, alkaline phosphatise=aP, aspartate aminotransferase=ASAT, gamma-glutamyl-transferase=Gamma-GT, glutamate dehydrogenase=GLDH, creatine kinase=CK) were measured using KONELAB 30i instrument (Thermo Fisher Scientific, 63303 Dreieich, Germany) as U/L (unit/liter) serum.

[2] = Toxicokinetics of formula (II) and methotrexate after individual and concomitant administration to Beagle dogs; assay type: in vivo; settings: for AUC(0-inf) / Cmax / half-life: mean
DBA1/J mice = experiment: Collagen Induced Arthritis in Mice, Arthritic Index (AI); assay type: in vivo; settings: po once daily, MTX 2.5 mg/kg, Formula (II) 50 mg/kg; for Average Arthritic Index, Mean: group mean
Description: Collagen Induced Arthritis in Mice
Bovine Type II collagen solution is prepared by dissolving at 4 mg/ml in 0.01 M acetic acid at 4-8° C. with stirring overnight. Immunogen is prepared by emulsifying a 1:1 vol:vol combination of collagen solution and Complete Freund's Adjuvant (CFA) (M. tuberculosis H37Ra suspension: 4 mg/ml).
DBA1/J mice (male, 7-8 weeks) are weighed. The animals are anesthetized, injected subcutaneously into the shaved base of the tail with collagen/CFA (0.050 ml/mouse; 100 microgram/mouse collagen in CFA) using a 1 ml syringe fitted with a 25 G needle and returned to the cages.
After three weeks (21 d) the procedure is repeated, though now with incomplete Freund's adjuvant (IFA) instead of CFA.
Animals are observed for one week and macroscopic signs of arthritis are scored 3-times weekly (Monday, Wednesday, Friday: M, W, F). Each paw receives a score: • a) 0=no visible effects of arthritis; • b) 1=edema and/or erythema of 1 digit; • c) 2=edema and/or erythema of 2 digits; • d) 3=edema and/or erythema of more than 2 digits; • e) 4=severe arthritis of entire paw and digits.
Calculate Arthritic Index (AI) by addition of individual paw scores and record. (Maximum AI=16)
After one week, mice are allocated to groups (10 mice per group) to give similar mean AI values and similar ranges of individual AI values in each treatment group.
Dosing is started, PO (per oral) once daily for 14 days.
AI scores determined 3× weekly.

Beagle dogs [3] = settings: Beagle dogs, 13 weeks oral
Description: The animals were randomly allocated to five test groups employing a pseudo-random body weight stratification procedure that yielded groups with approximately equal mean body weights. […] A special focus of the study was to study the influence of the combination treatment on liver toxicity.

[4] = female, Beagle, dog, plasma, po, 10 mg/kg, Group 4 (+MTX), formula (II) 10 mg/kg, day 1, female Beagle dogs
[5] = female, Beagle, dog, plasma, po, 10 mg/kg, Group 4 (+MTX), formula (II) 10 mg/kg, week 13, female Beagle dogs
[6] = female, Beagle, dog, plasma, po, 25 mg/kg, Group 2, formula (II) 25 mg/kg alone, day 1, female Beagle dogs
[7] = female, Beagle, dog, plasma, po, 25 mg/kg, Group 2, formula (II) 25 mg/kg alone, week 13, female Beagle dogs
[8] = female, Beagle, dog, plasma, po, 25 mg/kg, Group 5 (+MTX), formula (II) 25 mg/kg, day 1, female Beagle dogs
[9] = female, Beagle, dog, plasma, po, 25 mg/kg, Group 5 (+MTX), formula (II) 25 mg/kg, week 13, female Beagle dogs
[10] = male, Beagle, dog, plasma, po, 10 mg/kg, Group 4 (+MTX), formula (II) 10 mg/kg, day 1, male Beagle dogs
[11] = male, Beagle, dog, plasma, po, 10 mg/kg, Group 4 (+MTX), formula (II) 10 mg/kg, week 13, male Beagle dogs
[12] = male, Beagle, dog, plasma, po, 25 mg/kg, Group 2, formula (II) 25 mg/kg alone, day 1, male Beagle dogs
[13] = male, Beagle, dog, plasma, po, 25 mg/kg, Group 2, formula (II) 25 mg/kg alone, week 13, male Beagle dogs
[14] = male, Beagle, dog, plasma, po, 25 mg/kg, Group 5 (+MTX), formula (II) 25 mg/kg, day 1, male Beagle dogs
[15] = male, Beagle, dog, plasma, po, 25 mg/kg, Group 5 (+MTX), formula (II) 25 mg/kg, week 13, male Beagle dogs

COc1cccc(-c2ccc(NC(=O)C3=C(C(=O)O)CCC3)c(F)c2)c1 [Formula (II)]
Changes in the biochemical parameters (Beagle dogs [1]; Beagle dogs, 13 weeks oral, serum): slight increased enzyme activities of ALAT, ASAT and GLDH as well as slight increases of the bile acid concentration in serum
ALAT, change as compared to the control group 1 (Beagle dogs [1]; Test day 37, females): None
ASAT, change as compared to the control group 1 (Beagle dogs [1]; Test day 37, females): None
ALAT, change as compared to the control group 1 (Beagle dogs [1]; Test day 37, males): none
ASAT, change as compared to the control group 1 (Beagle dogs [1]; Test day 37, males): none
ALAT, change as compared to the control group 1 (Beagle dogs [1]; Test day 93, females): None
ASAT, change as compared to the control group 1 (Beagle dogs [1]; Test day 93, females): None
ALAT, change as compared to the control group 1 (Beagle dogs [1]; Test day 93, males): None
ASAT, change as compared to the control group 1 (Beagle dogs [1]; Test day 93, males): None
Toxicokinetic findings (plasma levels, interaction) ([2]; Beagle dogs, test day 1 and 85): clear dose response relationship
AUC(0-t) ([2]; female, Beagle, dog, plasma, po, 10 mg/kg): 598 µg·h/mL
AUC(0-inf) [2, 4]: 513 µg·h/mL
Cmax [2, 4]: 43000 ng/mL
half-life [2, 4]: 7.4 h
Cmax [2, 5]: 40500 ng/mL
half-life [2, 5]: 26.7 h
AUC(0-inf) [2, 6]: 773 µg·h/mL
Cmax [2, 6]: 56300 ng/mL
half-life [2, 6]: 8.6 h
AUC(0-inf) [2, 7]: 1010 µg·h/mL
Cmax [2, 7]: 66600 ng/mL
half-life [2, 7]: 11.1 h
AUC(0-inf) [2, 8]: 413 µg·h/mL
Cmax [2, 8]: 33100 ng/mL
half-life [2, 8]: 7.6 h
AUC(0-inf) [2, 9]: 1190 µg·h/mL
Cmax [2, 9]: 76300 ng/mL
half-life [2, 9]: 8.1 h
AUC(0-inf) [2, 10]: 322 µg·h/mL
Cmax [2, 10]: 30300 ng/mL
half-life [2, 10]: 6.3 h
AUC(0-inf) [2, 11]: 371 µg·h/mL
Cmax [2, 11]: 35700 ng/mL
half-life [2, 11]: 6.3 h
AUC(0-inf) [2, 12]: 289 µg·h/mL
Cmax [2, 12]: 22700 ng/mL
half-life [2, 12]: 7.8 h
AUC(0-inf) [2, 13]: 601 µg·h/mL
Cmax [2, 13]: 56900 ng/mL
half-life [2, 13]: 6.1 h
AUC(0-inf) [2, 14]: 858 µg·h/mL
Cmax [2, 14]: 60000 ng/mL
half-life [2, 14]: 8.4 h
AUC(0-inf) [2, 15]: 659 µg·h/mL
Cmax [2, 15]: 53600 ng/mL
half-life [2, 15]: 7.9 h
Average Arthritic Index, Mean (DBA1/J mice; study day 22): 0
Arthritic Index (individual mouse) (DBA1/J mice; study day 22): 0
Average Arthritic Index, Mean (DBA1/J mice; study day 23): 0
Arthritic Index (individual mouse) (DBA1/J mice; study day 23): 0
Average Arthritic Index, Mean (DBA1/J mice; study day 24): 0
Arthritic Index (individual mouse) (DBA1/J mice; study day 24): 0
Average Arthritic Index, Mean (DBA1/J mice; study day 25): 0
Arthritic Index (individual mouse) (DBA1/J mice; study day 25): 0
Average Arthritic Index, Mean (DBA1/J mice; study day 26): 0
Arthritic Index (individual mouse) (DBA1/J mice; study day 26): 0
Average Arthritic Index, Mean (DBA1/J mice; study day 27): 0
Arthritic Index (individual mouse) (DBA1/J mice; study day 27): 0
Average Arthritic Index, Mean (DBA1/J mice; study day 28): 0.7
Arthritic Index (individual mouse) (DBA1/J mice; study day 28): 1 (3×) and 0 (4×) and 2
Average Arthritic Index, Mean (DBA1/J mice; study day 30): 0.9
Arthritic Index (individual mouse) (DBA1/J mice; study day 30): 1 (4×) and 0 (3×) and 2 and 3
Average Arthritic Index, Mean (DBA1/J mice; study day 31): 2.2
Arthritic Index (individual mouse) (DBA1/J mice; study day 31): 2 (2×) and 3 (3×) and 1 (3×) and 4
Average Arthritic Index, Mean (DBA1/J mice; study day 32): 3.6
Average Arthritic Index, Mean (DBA1/J mice; study day 33): 5.2
Arthritic Index (individual mouse) (DBA1/J mice; study day 33): 6 (2×) and 11 and 2 (2×) and 5 (3×) and 8
Average Arthritic Index, Mean (DBA1/J mice; study day 35): 5.9
Arthritic Index (individual mouse) (DBA1/J mice; study day 35): 5 (2×) and 12 and 4 (3×) and 3 and 8
Average Arthritic Index, Mean (DBA1/J mice; study day 37): 6.9
Average Arthritic Index, Mean (DBA1/J mice; study day 40): 6.9
Average Arthritic Index, Mean (DBA1/J mice; study day 42): 7.0
Average Arthritic Index, Mean (DBA1/J mice; study day 44): 7.1
Average Arthritic Index, Mean (DBA1/J mice; study day 47): 7.6
Influence on body weight, food and drinking water consumption and haematological parameters (Beagle dogs [3]): no influence
